# Assay results: patent publication US20200352923A1 (priority 2017, published 2020)
# Tested on: rat bladder muscle strips (detrusor)
# Format: cell-based
structure (smiles),measurement,value
CN(C)C(=O)Oc1ccc[n+](C)c1 [pyridostigmine],drop in force from baseline after pyridostigmine,13±6%
same,recovery of the force drop,about 50%
